Values joined by “and” are separate entries in the source; they are usually repeats but may differ in a detail not shown here. Identical values can stand only once.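 These data come from cells grown in 96-well plates and exposed to compound for 48 hours at five concentrations. Abbreviation: GI50, concentration required for 50% inhibition of growth. The concentration for full growth arrest is given as TGI.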
Test system: MDA-MB-468 breast
Experiment: inhibition of tumour cell growth, NCI panel, 48 h

| Compound | GI50 | TGI |
| --- | --- | --- |
| CCC1CCc2nc3sc(C(=O)Nc4ccccc4F)c(N)c3cc2C1 (stereo unspecified) | 347 nM | > 100000 nM |
| COc1cc2c(c(OC)c1OC)-c1ccc(OC)c(=O)cc1[C@@H](NC(=O)CCl)CC2 | < 10 nM | < 10 nM |
| CCCCCCCCN(CCCCCCCC)C(=N)c1ccnc2ccccc12 | 342 nM | 1270 nM |
| O=c1oc2ccc(Cl)cc2c(=O)n1-c1ccc(Cl)cc1F | 382 nM | 1870 nM |
| CCCCCCN(CCCCCC)C(=N)c1ccnc2ccccc12 | 3130 nM | 11100 nM |
| Nc1ccccc1NC(=O)c1ccc(CSc2nc(N3CCOCC3)c3cccn3n2)cc1 | 1720 nM | 6470 nM |
| CS(=O)(=O)c1ccc(N/N=C/c2c(-c3ccc(S(C)(=O)=O)cc3)[nH]c3ccc(F)cc23)cc1 | 3490 nM | > 50000 nM |
| COc1cccc(-c2nn(-c3ccccc3)cc2-c2ccnc(NCCNS(=O)(=O)c3ccc(C(F)(F)F)cc3)c2)c1 | 3310 nM | 15100 nM |
| CCN(Cc1ccc(F)cc1)c1ccc(CO)c(Cl)c1 | 14.7 nM | 33.2 nM |
| CC(C)(Cl)CCC1=C(Cl)C(=O)c2ccccc2C1=O | 1500 nM | 3490 nM |
| O=C1C=C(Nc2ccccc2)c2ncccc2C1=O | 1570 nM | 3160 nM |
| COc1cc(N2CCC(N3CCN(C)CC3)CC2)ccc1Nc1ncc(Cl)c(Nc2ccccc2P(C)(C)=O)n1 | 1680 nM | 5290 nM |
| COc1ccc(C(=O)/C=C/c2cc3ccccc3[nH]c2=O)cc1 | 10500 nM | 23100 nM |
| C[C@H](c1ccc(Cl)cc1N)N1C(=O)c2cc(I)ccc2N(CCCN2CCN(C)CC2)C(=O)[C@@H]1c1ccc(Cl)cc1 | 1570 nM | 3140 nM |
| O=C1C2CC3C(CC2C(=O)[N]1[Sn]([c]1ccccc1)([c]1ccccc1)[c]1ccccc1)C1(Cl)C(Cl)=C(Cl)C3(Cl)C1(Cl)Cl (stereo unspecified) | 120 nM | 280 nM |
| O=S(=O)(NCCNc1cc(-c2cn(-c3ccccc3)nc2-c2cccc(O)c2)ccn1)c1ccc(C(F)(F)F)cc1 | 2050 nM | 5020 nM |
| Nc1ncc(-c2cnn(C3CCNCC3)c2)cc1-c1nc2ccccc2o1 | 367 nM | 2330 nM |
| Nc1nc(N)c2nc(CNc3ccc(C(=O)CC(CCC(=O)O)C(=O)O)cc3)cnc2n1 (stereo unspecified) | 208 nM | 2340 nM |
| CCCCCCCCCCCCCOC(=O)c1c(C)[nH]c(/C=C2\N=C(c3ccc[nH]3)C=C2OC)c1C | 385 nM | 44100 nM |
| CN1CCN(C(=O)c2ccc(NC(=O)Nc3ccc(N(C)c4ccnc(Nc5ccc(CS(C)(=O)=O)cc5)n4)cc3)cc2)CC1 | 4720 nM | > 25000 nM |
| CS(=O)(=O)CCNCc1ccc(-c2ccc3ncnc(Nc4ccc(OCc5ccccc5)c(C(F)(F)F)c4)c3c2)o1 | 1860 nM | 6400 nM |

| Compound | GI50 | TGI |
| --- | --- | --- |
| C/C(=C\c1ccn(-c2ccc(N)c(C(F)(F)F)c2)n1)[C@@H]1C[C@@H]2O[C@]2(C)CCC[C@H](C)[C@H](O)[C@@H](C)C(=O)C(C)(C)[C@@H](O)CC(=O)O1 | 10.6 nM | 14200 nM |
| COc1ccc(C(=S)c2cc(OC)c(OC)c(OC)c2)cc1OC(=O)CCl | 96.4 nM |  |
| CC(C)(C)c1cc(NC(=O)Nc2ccc(-c3cn4c5c(sc4n3)CCc3cn(CCCN4CCCCC4)cc3-5)cc2)no1 | 1840 nM | 3720 nM |
| Cc1cc(NC(=O)c2ccc(NS(=O)(=O)CCO)cc2N2CCC3(CC2)CC3)nc(N2CCC(F)(F)CC2)n1 | 69.4 nM | 2930 nM |
| Brc1cccc(/C=N/Nc2nc(N/N=C/c3cccc(Br)c3)nc(N3CCOCC3)n2)c1 | 1910 nM | 6090 nM |
| COc1ccc(-c2coc3ncnc(N)c23)cc1 | > 25000 nM | > 25000 nM |
| COc1cc2c(c(OC)c1OC)-c1ccc([O-])c(=O)cc1[C@@H](NC(C)=O)CC2.COc1cc2c(c(OC)c1OC)-c1ccc([O-])c(=O)cc1[C@@H](NC(C)=O)CC2.[Cu+2] | 4700 nM | 43200 nM |
| CN(C)CC/C=C1\c2ccccc2Sc2ccc(Cl)cc21 | 1390 nM | 3020 nM |
| CCOC(=O)[C@H](CSSc1ncnc2cc[nH]c12)NC(=O)[C@@H](C)c1ccc2cc(OC)ccc2c1 | 179 nM | 91700 nM |
| COc1ccc(NC(=O)[C@H](C)NC(=O)OC(C)(C)C)cc1C(=O)Nc1cccc(-c2cc(=O)c3c(OC)c(OC)c(OC)cc3o2)c1 | 2250 nM | 6280 nM |
| CNC(=O)c1ccc(Nc2ncc(C(F)(F)F)c(NCc3nccnc3N(C)S(C)(=O)=O)n2)cc1 | 1590 nM and 2060 nM and 1980 nM | 4990 nM and 5010 nM and 5290 nM |
| O=c1ncc(-c2ccc(C(F)(F)F)cc2)c(NC2CCCCCC2)[nH]1 | 21000 nM | 51400 nM |
| CCN1C(=O)N(CC)C2C1NN=c1s/c(=C3\C(=O)N(CCC(C)C)c4ccccc43)c(=O)n12 (stereo unspecified) | 283 nM | 720 nM |
| CCc1ccc(C2=C/C(=C/c3ccc(Cl)cc3)C(=O)N2CCc2ccc(S(N)(=O)=O)cc2)cc1 | 1940 nM | 5250 nM |
| COc1ccc(OC)c(/C=C/c2nnc(Nc3ccc(Cl)cc3)o2)c1 | 16400 nM | > 100000 nM |
| Cc1ccc(-c2csc(N(C(=O)N3CCN(c4cc5c(cc4F)c(=O)c(C(=O)O)cn5C4CC4)CC3)c3ccccc3)n2)cc1 | 366 nM | > 100000 nM |
| NC1=NC(=O)N2CC12 (stereo unspecified) | 76800 nM | 294000 nM |
| COc1cc2[nH]c(C(=O)c3cc(OC)c(OC)c(OC)c3)c(N)c2cc1C#CCO | 183 nM | > 100000 nM |
| C#C[C@@]1(O)[C@@H](CO)O[C@@H](n2cc(Cl)c3c(N)ncnc32)[C@@H]1O | 180 nM | 451 nM |
| O=C1C(=O)c2cc([N+](=O)[O-])ccc2-c2ccccc21 | 1640 nM | 3190 nM |

Reference: PubChem BioAssay (NCI)
